Source: patent publication US12472272B2, “Radiolabelled compounds for diagnosis or treatment of prostate-specific membrane antigen- expressing cancer” (PROVINCIAL HEALTH SERVICES AUTHORITY, priority 2019, dated 2025)

Assays:
[1] = system: PSMA-expressing LNCAP cancer xenografts; experiment: Biodistribution of ^68Ga-labeled PSMA-targeting tracers; assay type: in vivo, mice
Procedure: (§1) Imaging and biodistribution experiments were performed using NODSCID 1L2RγKO male mice. Mice were anesthetized by inhalation with 2% isoflurane in oxygen, and implanted subcutaneously with 1×10^7 LNCaP cells behind left shoulder. Mice were imaged or used in biodistribution studies when the tumor grew up to reach 5-8 mm in diameter during 5-6 weeks.
(§2) PET imaging experiments were conducted using Siemens Inveon micro PET/CT scanner. Each tumor bearing mouse was injected 6-8 MBq of Ga-68 labeled tracer through the tail vein under anesthesia (2% isoflurane in oxygen). The mice were allowed to recover and roam freely in their cage. After 50 min, the mice were sedated again with 2% isoflurane in oxygen inhalation and positioned in the scanner. A 10-min CT scan was conducted first for localization and attenuation correction after segmentation for reconstructing the PET images. Then, a 10-min static PET imaging was performed to determined uptake in tumor and other organs. The mice were kept warm by a heating pad during acquisition. For imaging studies acquired at 3 h post-injection (p.i.), the mice were placed in the micro PET/CT scanner at 170 min p.i. Then, the CT acquisitions were conducted as described above, a 15-min static PET imaging was performed to determined uptake in tumor and other organs.
For biodistribution studies, the mice were injected with the radiotracer as described above. At predetermined time points (1 or 3 h for ^68Ga studies; 1, 4, 24, 72, or 120 h for ^177Lu studies), the mice was anesthetized with 2% isoflurane inhalation, and euthanized by CO2 inhalation. Blood was withdrawn immediately from the heart, and the organs/tissues of interest were collected. The collected organs/tissues were weighed and counted using a Perkin Elmer (Waltham, MA) Wizard2 2480 gamma counter. The uptake in each organ/tissue was normalized to the injected dose using a standard curve, and expressed as the percentage of the injected dose per gram of tissue (% ID/g).

LNCaP tumors = experiment: PET/CT imaging of ^68Ga-labeled tracers; assay type: in vivo, mice; conditions: FIG. 3
Procedure: as §1, §2

Tissue (% ID/g): Adrenal glands ([1]; 1 h post-injection): 8.90 ± 2.56 % ID/g | Tissue (% ID/g): Blood ([1]; 1 h post-injection): 1.43 ± 0.30 % ID/g | Tissue (% ID/g): Bone ([1]; 1 h post-injection): 1.29 ± 0.45 % ID/g | Tissue (% ID/g): Brain ([1]; 1 h post-injection): 0.10 ± 0.05 % ID/g | Tissue (% ID/g): Fat ([1]; 1 h post-injection): 2.06 ± 0.59 % ID/g | Tissue (% ID/g): Heart ([1]; 1 h post-injection): 1.82 ± 0.21 % ID/g | Tissue (% ID/g): Intestine ([1]; 1 h post-injection): 1.14 ± 0.18 % ID/g | Tissue (% ID/g): Kidneys ([1]; 1 h post-injection): 170 ± 26.4 % ID/g | Tissue (% ID/g): Lacrimal ([1]; 1 h post-injection): 2.44 ± 1.79 % ID/g | Tissue (% ID/g): Liver ([1]; 1 h post-injection): 1.38 ± 0.25 % ID/g | Tissue (% ID/g): Lungs ([1]; 1 h post-injection): 4.32 ± 0.62 % ID/g | Tissue (% ID/g): Muscle ([1]; 1 h post-injection): 0.75 ± 0.09 % ID/g | Tissue (% ID/g): Pancreas ([1]; 1 h post-injection): 1.47 ± 0.16 % ID/g | Tissue (% ID/g): Salivary ([1]; 1 h post-injection): 4.99 ± 0.88 % ID/g | Tissue (% ID/g): Seminal ([1]; 1 h post-injection): 1.03 ± 0.27 % ID/g | Tissue (% ID/g): Spleen ([1]; 1 h post-injection): 8.95 ± 3.22 % ID/g | Tissue (% ID/g): Stomach ([1]; 1 h post-injection): 0.41 ± 0.11 % ID/g | Tissue (% ID/g): Tail ([1]; 1 h post-injection): 1.36 ± 0.45 % ID/g | Tissue (% ID/g): Testes ([1]; 1 h post-injection): 1.34 ± 0.22 % ID/g | Tissue (% ID/g): Thyroid ([1]; 1 h post-injection): 2.48 ± 0.44 % ID/g | Tissue (% ID/g): Tumor ([1]; 1 h post-injection): 23.1±6.11 % ID/g | Tissue (% ID/g): Urine ([1]; 1 h post-injection): 173 ± 93.01 % ID/g | tumor-to-background contrast ratio Tumor: Blood ([1]; 1 h post-injection): 17.3 ± 7.24 | tumor-to-background contrast ratio Tumor: Muscle ([1]; 1 h post-injection): 31.6 ± 12.1 | tumor-to-background contrast ratio Tumor: kidney ([1]; 1 h post-injection): 0.14 ± 0.04 | Tissue (% ID/g): Adrenal glands ([1]; 3 h post-injection): 4.04 ± 1.20 % ID/g | Tissue (% ID/g): Blood ([1]; 3 h post-injection): 0.83 ± 0.27 % ID/g | Tissue (% ID/g): Bone ([1]; 3 h post-injection): 0.98 ± 0.40 % ID/g | Tissue (% ID/g): Brain ([1]; 3 h post-injection): 0.06 ± 0.02 % ID/g | Tissue (% ID/g): Fat ([1]; 3 h post-injection): 1.06 ± 0.20 % ID/g | Tissue (% ID/g): Heart ([1]; 3 h post-injection): 0.93 ± 0.17 % ID/g | Tissue (% ID/g): Intestine ([1]; 3 h post-injection): 0.67 ± 0.09 % ID/g | Tissue (% ID/g): Kidneys ([1]; 3 h post-injection): 121 ± 37.6 % ID/g | Tissue (% ID/g): Lacrimal ([1]; 3 h post-injection): 2.82 ± 3.84 % ID/g | Tissue (% ID/g): Liver ([1]; 3 h post-injection): 0.82 ± 0.15 % ID/g | Tissue (% ID/g): Lungs ([1]; 3 h post-injection): 2.14 ± 0.39 % ID/g | Tissue (% ID/g): Muscle ([1]; 3 h post-injection): 0.40 ± 0.06 % ID/g | Tissue (% ID/g): Pancreas ([1]; 3 h post-injection): 0.71 ± 0.12 % ID/g | Tissue (% ID/g): Salivary ([1]; 3 h post-injection): 2.11 ± 0.57 % ID/g | Tissue (% ID/g): Seminal ([1]; 3 h post-injection): 4.56 ± 9.00 % ID/g | Tissue (% ID/g): Spleen ([1]; 3 h post-injection): 4.19 ± 1.58 % ID/g | Tissue (% ID/g): Stomach ([1]; 3 h post-injection): 0.26 ± 0.06 % ID/g | Tissue (% ID/g): Tail ([1]; 3 h post-injection): 0.86 ± 0.73 % ID/g | Tissue (% ID/g): Testes ([1]; 3 h post-injection): 0.89 ± 0.12 % ID/g | Tissue (% ID/g): Thyroid ([1]; 3 h post-injection): 1.19 ± 0.23 % ID/g | Tissue (% ID/g): Tumor ([1]; 3 h post-injection): 28.2±9.17 % ID/g | Tissue (% ID/g): Urine ([1]; 3 h post-injection): 171 ± 93.3 % ID/g | tumor-to-background contrast ratio Tumor: Blood ([1]; 3 h post-injection): 36.6 ± 15.4 | tumor-to-background contrast ratio Tumor: Muscle ([1]; 3 h post-injection): 73.8 ± 30.9 | tumor-to-background contrast ratio Tumor: kidney ([1]; 3 h post-injection): 0.26 ± 0.13
SMILES: O=C([O-])CN1CCN(CC(=O)[O-])CCN(CC(=O)NC[C@H]2CC[C@H](C(=O)N[C@@H](Cc3c4ccccc4cc4ccccc34)C(=O)NCCCC[C@H](NC(=O)N[C@@H](CCC(=O)O)C(=O)O)C(=O)O)CC2)CCN(CC(=O)[O-])CC1.[68Ga+3] [^68Ga-HTK03041]
uptake in PET/CT images (LNCaP tumors): higher uptake was observed in LNCap tumor xenografts, kidneys and urinary bladders
